Our source for the IC50 values is ChEMBL document CHEMBL3608278 (J Med Chem, 2015).

Molecules are shown by their SMILES. Some results are limits rather than exact numbers.

In general, IC50 refers to the concentration that gives 50% inhibition.

The target in experiment [1] is T1, Potassium voltage-gated channel subfamily A member 3 (Homo sapiens, UniProt P22001). In words: cell-based. Set-up: species or system Blood.
Experiment [2] has as its target T1, Potassium voltage-gated channel subfamily A member 3. In kind it is cell-based, CHO-K1.
Experiment [3] shares this target. Details: species or system Blood.

T1 sequence (P22001 whole entry): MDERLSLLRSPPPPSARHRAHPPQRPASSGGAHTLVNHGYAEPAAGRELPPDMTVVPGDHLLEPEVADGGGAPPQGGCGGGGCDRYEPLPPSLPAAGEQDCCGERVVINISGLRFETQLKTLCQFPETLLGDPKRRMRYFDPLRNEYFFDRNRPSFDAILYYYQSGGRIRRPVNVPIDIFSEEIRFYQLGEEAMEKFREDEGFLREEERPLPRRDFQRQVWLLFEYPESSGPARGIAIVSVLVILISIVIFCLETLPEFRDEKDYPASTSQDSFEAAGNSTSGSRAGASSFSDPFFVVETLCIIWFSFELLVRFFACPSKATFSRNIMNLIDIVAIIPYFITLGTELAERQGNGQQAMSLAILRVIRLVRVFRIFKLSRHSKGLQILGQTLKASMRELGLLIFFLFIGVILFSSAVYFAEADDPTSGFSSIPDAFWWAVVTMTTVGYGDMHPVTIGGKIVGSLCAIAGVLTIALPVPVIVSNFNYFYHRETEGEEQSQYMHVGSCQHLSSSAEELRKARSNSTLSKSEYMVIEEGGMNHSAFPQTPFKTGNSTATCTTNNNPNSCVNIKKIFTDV

For `CC[C@H](C)[C@@H]1NC(=O)[C@@H](NC(=O)[C@H](CO)NC(=O)[C@H](C)N)CSSC[C@@H](C(=O)O)NC(=O)[C@H]([C@@H](C)O)NC(=O)CNC(=O)[C@@H]2CSSC[C@@H]3NC(=O)[C@H](CCC(N)=O)NC(=O)[C@H](Cc4ccccc4)NC(=O)[C@H](C)NC(=O)[C@H]([C@@H](C)O)NC(=O)[C@H](CSSC[C@H](NC(=O)[C@H](Cc4ccccc4)NC(=O)[C@H](CO)NC(=O)[C@H](CC(C)C)NC(=O)[C@H](CCCNC(=N)N)NC(=O)[C@H](Cc4ccc(O)cc4)NC(=O)[C@H](CCCCN)NC(=O)[C@H](CCSC)NC(=O)[C@H](CO)NC(=O)[C@H](Cc4cnc[nH]4)NC(=O)[C@H](CCCCN)NC3=O)C(=O)N[C@@H](CCCNC(=N)N)C(=O)N[C@@H](CCCCN)C(=O)N[C@@H]([C@@H](C)O)C(=O)N2)NC(=O)[C@H](CCCNC(=N)N)NC(=O)[C@H](CO)NC(=O)[C@H](CCCCN)NC(=O)[C@@H]2CCCN2C(=O)[C@H]([C@@H](C)CC)NC(=O)[C@H]([C@@H](C)O)NC(=O)[C@H](CC(=O)O)NC1=O`, the figures for the IC50 in experiment [1] and in experiment [2] were 0.061 nM and 0.166 nM, respectively.
On to `CC[C@H](C)[C@@H]1NC(=O)[C@@H](NC(=O)[C@H](CO)NC(=O)[C@@H](N)CCCNC(=N)N)CSSC[C@@H](C(=O)O)NC(=O)[C@H]([C@@H](C)O)NC(=O)CNC(=O)[C@@H]2CSSC[C@@H]3NC(=O)[C@H](CCC(N)=O)NC(=O)[C@H](Cc4ccccc4)NC(=O)[C@H](C)NC(=O)[C@H]([C@@H](C)O)NC(=O)[C@H](CSSC[C@H](NC(=O)[C@H](Cc4ccccc4)NC(=O)[C@H](CO)NC(=O)[C@H](CC(C)C)NC(=O)[C@H](CCCNC(=N)N)NC(=O)[C@H](Cc4ccc(O)cc4)NC(=O)[C@H](CCCCN)NC(=O)[C@H](CCSC)NC(=O)[C@H](CO)NC(=O)[C@H](Cc4cnc[nH]4)NC(=O)[C@H](CCCCN)NC3=O)C(=O)N[C@@H](CCCNC(=N)N)C(=O)N[C@@H](CCCNC(=N)N)C(=O)N[C@@H]([C@@H](C)O)C(=O)N2)NC(=O)[C@H](CCCNC(=N)N)NC(=O)[C@H](CO)NC(=O)[C@H](CCCCN)NC(=O)[C@@H]2CCCN2C(=O)[C@H]([C@@H](C)CC)NC(=O)[C@H]([C@@H](C)O)NC(=O)[C@H](CC(=O)O)NC1=O`, for which the IC50 in experiment [3] was found to be 0.058 nM; in experiment [2], 0.038 nM.
Regarding `CC[C@H](C)[C@@H]1NC(=O)[C@@H](NC(=O)[C@H](CO)NC(=O)[C@@H](N)CCCNC(=N)N)CSSC[C@@H](C(=O)O)NC(=O)[C@H]([C@@H](C)O)NC(=O)CNC(=O)[C@@H]2CSSC[C@@H]3NC(=O)[C@H](CCC(N)=O)NC(=O)[C@H](Cc4ccccc4)NC(=O)[C@H](C)NC(=O)[C@H]([C@@H](C)O)NC(=O)[C@H](CSSC[C@H](NC(=O)[C@H](Cc4ccccc4)NC(=O)[C@H](CO)NC(=O)[C@H](CC(C)C)NC(=O)[C@H](CCCNC(=N)N)NC(=O)[C@H](Cc4ccc(O)cc4)NC(=O)[C@H](CCCCN)NC(=O)[C@H](CCSC)NC(=O)[C@H](CO)NC(=O)[C@H](Cc4cnc[nH]4)NC(=O)[C@H](CCCCN)NC3=O)C(=O)N[C@@H](CCCNC(=N)N)C(=O)N[C@@H](CCCCN)C(=O)N[C@@H]([C@@H](C)O)C(=O)N2)NC(=O)[C@H](CCCNC(=N)N)NC(=O)[C@H](CO)NC(=O)[C@H](CCCCN)NC(=O)[C@@H]2CCCN2C(=O)[C@H]([C@@H](C)CC)NC(=O)[C@H]([C@@H](C)O)NC(=O)[C@H](CCCCN)NC1=O`, the IC50 in experiment [1] is > 100 nM; in experiment [3], > 100 nM; in experiment [2], > 3.33 nM.
As to `CC[C@H](C)[C@@H]1NC(=O)[C@@H](NC(=O)[C@H](CO)NC(=O)[C@@H](N)CCCNC(=N)N)CSSC[C@@H](C(=O)O)NC(=O)[C@H]([C@@H](C)O)NC(=O)CNC(=O)[C@@H]2CSSC[C@@H]3NC(=O)[C@H](CCC(N)=O)NC(=O)[C@H](Cc4ccccc4)NC(=O)[C@H](C)NC(=O)[C@H]([C@@H](C)O)NC(=O)[C@H](CSSC[C@H](NC(=O)[C@H](Cc4ccccc4)NC(=O)[C@H](CO)NC(=O)[C@H](CC(C)C)NC(=O)[C@H](CCCNC(=N)N)NC(=O)[C@H](Cc4ccc(O)cc4)NC(=O)[C@H](CCCCN)NC(=O)[C@H](CCSC)NC(=O)[C@H](CO)NC(=O)[C@H](Cc4c[nH]cn4)NC(=O)[C@H](CCCCN)NC3=O)C(=O)N[C@@H](CCCNC(=N)N)C(=O)N[C@@H](CCCCN)C(=O)N[C@@H]([C@@H](C)O)C(=O)N2)NC(=O)[C@H](CCCNC(=N)N)NC(=O)[C@H](CO)NC(=O)[C@H](CCCCN)NC(=O)[C@@H]2CCCN2C(=O)[C@H]([C@@H](C)CC)NC(=O)[C@H](CCCCN)NC(=O)[C@H](CC(=O)O)NC1=O`, the IC50 is 0.117 nM in experiment [1], 0.21 nM in experiment [3] and 0.129 nM in experiment [2].
For `CC[C@H](C)[C@@H]1NC(=O)[C@@H](NC(=O)[C@H](CO)NC(=O)[C@@H](N)CCCNC(=N)N)CSSC[C@@H](C(=O)O)NC(=O)[C@H]([C@@H](C)O)NC(=O)CNC(=O)[C@@H]2CSSC[C@@H]3NC(=O)[C@H](CCC(N)=O)NC(=O)[C@H](Cc4ccccc4)NC(=O)[C@H](C)NC(=O)[C@H]([C@@H](C)O)NC(=O)[C@H](CSSC[C@H](NC(=O)[C@H](Cc4ccccc4)NC(=O)[C@H](CO)NC(=O)[C@H](CC(C)C)NC(=O)[C@H](CCCNC(=N)N)NC(=O)[C@H](Cc4ccc(O)cc4)NC(=O)[C@H](CCCCN)NC(=O)[C@H](CCSC)NC(=O)[C@H](CO)NC(=O)[C@H](Cc4cnc[nH]4)NC(=O)[C@H](CCCCN)NC3=O)C(=O)N[C@@H](CCCNC(=N)N)C(=O)N[C@@H](CCCCN)C(=O)N[C@@H]([C@@H](C)O)C(=O)N2)NC(=O)[C@H](CCCNC(=N)N)NC(=O)[C@H](CO)NC(=O)[C@H](CCCCN)NC(=O)[C@@H]2CCCN2C(=O)[C@H](CCCCN)NC(=O)[C@H]([C@@H](C)O)NC(=O)[C@H](CC(=O)O)NC1=O`, in that order: 4.67 nM, 13.5 nM and 0.561 nM.
Consider `CC[C@H](C)[C@@H]1NC(=O)[C@@H](NC(=O)[C@H](CO)NC(=O)[C@@H](N)CCCNC(=N)N)CSSC[C@@H](C(=O)O)NC(=O)[C@H]([C@@H](C)O)NC(=O)CNC(=O)[C@@H]2CSSC[C@@H]3NC(=O)[C@H](CCC(N)=O)NC(=O)[C@H](Cc4ccccc4)NC(=O)[C@H](C)NC(=O)[C@H]([C@@H](C)O)NC(=O)[C@H](CSSC[C@H](NC(=O)[C@H](Cc4ccccc4)NC(=O)[C@H](CO)NC(=O)[C@H](CC(C)C)NC(=O)[C@H](CCCNC(=N)N)NC(=O)[C@H](Cc4ccc(O)cc4)NC(=O)[C@H](CCCCN)NC(=O)[C@H](CCSC)NC(=O)[C@H](CO)NC(=O)[C@H](Cc4cnc[nH]4)NC(=O)[C@H](CCCCN)NC3=O)C(=O)N[C@@H](CCCNC(=N)N)C(=O)N[C@@H](CCCCN)C(=O)N[C@@H]([C@@H](C)O)C(=O)N2)NC(=O)[C@H](CCCNC(=N)N)NC(=O)[C@H](CCCCN)NC(=O)[C@H](CCCCN)NC(=O)[C@@H]2CCCN2C(=O)[C@H]([C@@H](C)CC)NC(=O)[C@H]([C@@H](C)O)NC(=O)[C@H](CC(=O)O)NC1=O`, for which the IC50 in experiment [1] is 0.052 nM; in experiment [3], 0.082 nM; in experiment [2], 0.184 nM.
In the case of `CC[C@H](C)[C@@H]1NC(=O)[C@@H](NC(=O)[C@H](CO)NC(=O)[C@@H](N)CCCNC(=N)N)CSSC[C@@H](C(=O)O)NC(=O)[C@H]([C@@H](C)O)NC(=O)CNC(=O)[C@@H]2CSSC[C@@H]3NC(=O)[C@H](CCC(N)=O)NC(=O)[C@H](Cc4ccccc4)NC(=O)[C@H](C)NC(=O)[C@H](CCCCN)NC(=O)[C@H](CSSC[C@H](NC(=O)[C@H](Cc4ccccc4)NC(=O)[C@H](CO)NC(=O)[C@H](CC(C)C)NC(=O)[C@H](CCCNC(=N)N)NC(=O)[C@H](Cc4ccc(O)cc4)NC(=O)[C@H](CCCCN)NC(=O)[C@H](CCSC)NC(=O)[C@H](CO)NC(=O)[C@H](Cc4cnc[nH]4)NC(=O)[C@H](CCCCN)NC3=O)C(=O)N[C@@H](CCCNC(=N)N)C(=O)N[C@@H](CCCCN)C(=O)N[C@@H]([C@@H](C)O)C(=O)N2)NC(=O)[C@H](CCCNC(=N)N)NC(=O)[C@H](CO)NC(=O)[C@H](CCCCN)NC(=O)[C@@H]2CCCN2C(=O)[C@H]([C@@H](C)CC)NC(=O)[C@H]([C@@H](C)O)NC(=O)[C@H](CC(=O)O)NC1=O`, the IC50 in experiment [1] was 0.257 nM; in experiment [3], 0.363 nM; in experiment [2], 0.154 nM.
Take `CC[C@H](C)[C@@H]1NC(=O)[C@@H](NC(=O)[C@H](CO)NC(=O)[C@@H](N)CCCNC(=N)N)CSSC[C@@H](C(=O)O)NC(=O)[C@H]([C@@H](C)O)NC(=O)CNC(=O)[C@@H]2CSSC[C@@H]3NC(=O)[C@H](CCC(N)=O)NC(=O)[C@H](Cc4ccccc4)NC(=O)[C@H](C)NC(=O)[C@H]([C@@H](C)O)NC(=O)[C@H](CSSC[C@H](NC(=O)[C@H](Cc4ccccc4)NC(=O)[C@H](CO)NC(=O)[C@H](CC(C)C)NC(=O)[C@H](CCCNC(=N)N)NC(=O)[C@H](Cc4ccc(O)cc4)NC(=O)[C@H](CCCCN)NC(=O)[C@H](CCSC)NC(=O)[C@H](CO)NC(=O)[C@H](Cc4cnc[nH]4)NC(=O)[C@H](CCCCN)NC3=O)C(=O)N[C@@H](CCCNC(=N)N)C(=O)N[C@@H](CCCCN)C(=O)N[C@@H]([C@@H](C)O)C(=O)N2)NC(=O)[C@H](CCCNC(=N)N)NC(=O)[C@H](Cc2cccc3ccccc23)NC(=O)[C@H](CCCCN)NC(=O)[C@@H]2CCCN2C(=O)[C@H]([C@@H](C)CC)NC(=O)[C@H]([C@@H](C)O)NC(=O)[C@H](CC(=O)O)NC1=O`: the 50% inhibitory concentration (IC50) is 0.255 nM in experiment [3] and 0.216 nM in experiment [2].
